# From patent US12162858B2, “Quinoline derivatives as inhibitors of AXL/MER RTK and CSF1R” (QURIENT CO., LTD., priority 2018, dated 2024)
# Target: T1, Axl (Homo sapiens, UniProt P30530)
# T1 sequence (P30530 26-894): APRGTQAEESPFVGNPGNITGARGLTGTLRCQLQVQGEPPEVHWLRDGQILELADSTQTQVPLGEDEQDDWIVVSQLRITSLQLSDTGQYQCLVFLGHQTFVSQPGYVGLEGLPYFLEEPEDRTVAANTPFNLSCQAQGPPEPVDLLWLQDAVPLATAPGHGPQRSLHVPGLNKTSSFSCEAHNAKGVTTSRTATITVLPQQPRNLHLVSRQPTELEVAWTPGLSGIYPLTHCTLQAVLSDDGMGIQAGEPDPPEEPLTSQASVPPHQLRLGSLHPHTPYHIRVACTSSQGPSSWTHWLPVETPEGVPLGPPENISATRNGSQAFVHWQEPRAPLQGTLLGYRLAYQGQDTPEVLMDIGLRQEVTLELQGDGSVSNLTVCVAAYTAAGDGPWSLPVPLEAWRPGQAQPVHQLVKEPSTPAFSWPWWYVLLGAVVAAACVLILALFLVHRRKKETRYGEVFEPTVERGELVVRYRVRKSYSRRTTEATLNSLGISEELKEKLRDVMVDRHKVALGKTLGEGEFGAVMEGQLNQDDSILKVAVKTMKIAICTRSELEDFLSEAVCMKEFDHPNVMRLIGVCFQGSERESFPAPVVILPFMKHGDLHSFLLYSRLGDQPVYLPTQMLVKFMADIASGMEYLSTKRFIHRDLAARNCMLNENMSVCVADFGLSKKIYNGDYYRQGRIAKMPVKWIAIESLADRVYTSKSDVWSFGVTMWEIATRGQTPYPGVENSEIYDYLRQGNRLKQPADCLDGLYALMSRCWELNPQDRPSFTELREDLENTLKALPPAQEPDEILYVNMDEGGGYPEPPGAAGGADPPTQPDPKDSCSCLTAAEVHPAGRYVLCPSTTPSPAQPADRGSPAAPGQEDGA
# Assay: Cellular Axl inhibition ELISA (p-Axl, Gas6-induced) using H1299 cells
# Type: cell-based
# Parameters: especially H1299 cell endogenously expresses Axl; endogenous in cells; host or cells: H1299
# Conditions: Elisa, comparison of compounds of present invention (**) vs compounds of WO2016/166250 (*), read-out: Cellular activity Axl (H1299) (IC50)
# Method: Axl is expressed in several of malignant cancer cells; especially H1299 cell endogenously expresses Axl; and an increased phosphorylation of Axl (p-Axl) can be observed, when induced by the Axl ligand, Ga6.
# The H1299 cells should be 40-80% confluent in the cell culture flask. Then cells are washed with DPBS and trypsinized. After centrifugation, the cell pellet is re-suspended with pre-warmed culture medium (RPMI1640, 10% FBS) and cells are separated by pipetting 6 times up and down with a 10 ml serological pipette. The cell suspension was diluted to a final concentration of 1.25×10^5 cells/ml. Then 80 μl/well cell suspension is added to the plate. Cell-plates are incubated at 37° C./5% CO2 overnight. Compounds were dissolved by DMSO to 10 mM, and kept in nitrogen cabinet. Prepare the compounds stock plate, the reference compounds concentration starts at 0.50 mM (5 μl+95 μl DMSO), and the tested compounds start at 1.5 mM (6 μl+34 μl DMSO); Then make a 3-fold dilution series (10 doses) compounds. Then dilute compounds by the medium in the mid plate (2 μl compounds+198 μl medium). Transfer 20 μl diluted compounds from mid plate to the cell coated plate. Cell-plates are incubated at 37° C./5% CO2 for 24 h. Add 25 μl of Human Gas6 (1000 ng/ml) to 96-well plate; the final concentration of Human Gas6 is 200 ng/ml. Incubate the plates at 37° C./5% CO2 for 1 h. Remove medium and wash cells once with 300 ul/well ice-cold 1×PBS. Then remove PBS and add 100 μl/well ice-cold 1× Cell Lysis Buffer to 96-well plate. The plate is shaken for 40 min at 4° C. Then plates can be stored at −20° C. After the micro-wells strips have reached room temperature, break off the required number of micro-wells. Place the micro-wells in the strip holder. Unused micro-wells must be resealed and stored at 4° C. immediately. Add 60 μl of cell lysate to the appropriate well. Seal with tape and press firmly onto top of micro-wells. Incubate the plate at 37° C. for 2 h. Gently remove the tape and wash wells 5 times with 1× Wash Buffer, 300 μl each time for each well. Add 100 μl of reconstituted Detection Antibody (green color) to each well. Seal with tape and incubate the plate at 37° C. for 1 h. Repeat wash procedure. Add 100 μl of reconstituted HRP Linked secondary antibody to each well. Seal with tape and incubate the plate at 37° C. for 30 min. Repeat wash procedure. Add 100 μl of TMB Substrate to each well. Seal with tape and incubate the plate at 37° C. for 15 min. Add 100 μl of STOP Solution to each well. Shake gently for a few seconds. Read absorbance at 450 nm within 30 min after adding STOP Solution. Calculations and Formulas: The following calculations and formulas are used for data analysis using XL Fit software: The curve fitting was made using the Sigmoidal Dose-Response Model (Fit model, 205).
row,IC50 [nM],SMILES
1,5.2,COCCn1cc(OCC(F)(F)F)c(C(=O)Nc2ccc(Oc3ccnc4cc(OC)c(OC)cc34)cn2)n1 [Compound 10]
2,3.9,COc1cc2nccc(Oc3ccc(NC(=O)c4nn(CC5COC5)cc4OCC(F)(F)F)nc3)c2cc1OC [Compound 92]

# Same assay, conditions: read-out: Cellular Axl activity by H1299 Elisa (IC50)
row,IC50 [nM],SMILES
1,≥ 1000,CNCCOc1cn(C2CC2)nc1C(=O)Nc1ccc(Oc2ccnc3cc(OC)c(OC)cc23)cn1 [Compound 141]
2,< 500,COc1cc2nccc(Oc3ccc(NC(=O)c4nn(C5CC5)cc4OCC(F)F)nc3)c2cc1OC [Compound 109]
3,500 to 1000,COc1cc2nccc(Oc3ccc(NC(=O)c4nn(CC(C)O)cc4OCCF)nc3)c2cc1OC (stereo not shown) [Compound 152]
4,< 500,CCn1cc(OC(C)C)c(C(=O)Nc2ccc(Oc3ccnc4cc(OC)c(OC)cc34)cn2)n1 [Compound 6]
5,500 to 1000,CNCCn1cc(OCC(F)(F)F)c(C(=O)Nc2ccc(Oc3ccnc4cc(OC)c(OC)cc34)cc2F)n1 [Compound 154]
6,< 500,COc1cc2nccc(Oc3ccc(NC(=O)c4nn(C5CC5)cc4NCCC(F)(F)F)nn3)c2cc1OC [Compound 146]
7,< 500,COc1cc2nccc(Oc3ccc(NC(=O)c4nn(CC5COC5)cc4OCC(F)(F)F)cc3C)c2cc1OC [Compound 99]
8,< 500,COc1cc2nccc(Oc3ccc(NC(=O)c4nn(CC5COC5)cc4OCC(F)(F)F)nn3)c2cc1OC [Compound 123]
9,≥ 1000,CNCCn1cc(OCC(F)(F)F)c(C(=O)Nc2ccc(Oc3ccnc4cc(OC)c(OC)cc34)nc2)n1 [Compound 137]
10,≥ 1000,COc1cc2nccc(Oc3ccc(NC(=O)c4nn(CC(C)O)cc4OCC(F)(F)F)cn3)c2cc1OC (stereo not shown) [Compound 136]
11,< 500,COc1cc2nccc(Oc3ccc(NC(=O)c4nn(C5CCOC5)cc4OCC(F)(F)F)cn3)c2cc1OC (stereo not shown) [Compound 138]
12,< 500,COc1cc2nccc(Oc3ccc(NC(=O)c4nn(CCOC5CC5)cc4OCC(F)(F)F)nc3)c2cc1OC [Compound 153]
13,< 500,COc1cc2nccc(Oc3ccc(NC(=O)c4nn(C5CC5)cc4OCCF)nn3)c2cc1OC [Compound 113]
14,< 500,COc1cc2nccc(Oc3ccc(NC(=O)c4nn(C5CC5)cc4NCCC(F)(F)F)nc3)c2cc1OC [Compound 142]
15,≥ 1000,CNCCn1cc(OCC(F)(F)F)c(C(=O)Nc2ccc(Oc3ccnc4cc(OC)c(OC)cc34)cc2)n1 [Compound 119]
16,500 to 1000,COCCn1cc(OCC(F)(F)F)c(C(=O)Nc2ccc(Oc3ccnc4cc(OC)c(OC)cc34)nc2)n1 [Compound 104]
17,< 500,COCCn1cc(OCC(F)(F)F)c(C(=O)Nc2ccc(Oc3ccnc4cc(OC)c(OC)cc34)cn2)n1 [Compound 10]
18,< 500,CCCn1cc(OCC2CCOCC2)c(C(=O)Nc2ccc(Oc3ccnc4cc(OC)c(OC)cc34)cn2)n1 [Compound 164]
19,< 500,CCCn1cc(NCCC(F)(F)F)c(C(=O)Nc2ccc(Oc3ccnc4cc(OC)c(OC)cc34)cn2)n1 [Compound 158]
20,≥ 1000,COc1cc2nccc(Oc3ccc(NC(=O)c4nn(CCN)cc4OCC(F)(F)F)nn3)c2cc1OC [Compound 125]
21,< 500,COc1cc2nccc(Oc3ccc(NC(=O)c4nn(CC5COC5)cc4OCC(F)(F)F)nc3)c2cc1OC [Compound 92]
22,< 500,COc1cc2nccc(Oc3ccc(NC(=O)c4nn(C5CCN(C)C5)cc4OCC(F)(F)F)cc3F)c2cc1OC (stereo not shown) [Compound 96]
23,≥ 1000,COc1cc2nccc(Oc3ccc(NC(=O)c4nn(C5CCN(C)C5)cc4OCC(F)(F)F)cn3)c2cc1OC (stereo not shown) [Compound 133]
24,< 500,CCCn1cc(OCC(F)(F)F)c(C(=O)Nc2ccc(Oc3ccnc4cc(OC)c(OC)cc34)nc2)n1 [Compound 139]

row,IC50 [nM],SMILES
1,≥ 1000,CNCCn1cc(OCC(F)(F)F)c(C(=O)Nc2ccc(Oc3ccnc4cc(OC)c(OC)cc34)c(C)c2)n1 [Compound 156]
2,≥ 1000,COc1cc2nccc(Oc3ccc(NC(=O)c4nn(CCOC5CC5)cc4OCC(F)(F)F)cn3)c2cc1OC [Compound 130]
3,< 500,COc1cc2nccc(Oc3ccc(NC(=O)c4nn(CC(C)O)cc4OC(C)C)nc3)c2cc1OC (stereo not shown) [Compound 151]
4,< 500,COc1cc2nccc(Oc3ccc(NC(=O)c4nn(CCOC5CC5)cc4OCC(F)(F)F)cc3)c2cc1OC [Compound 118]
5,< 500,COc1cc2nccc(Oc3ccc(NC(=O)c4nn(CC5COC5)cc4OCC(F)(F)F)cn3)c2cc1OC [Compound 134]
6,≥ 1000,COc1cc2nccc(Oc3ccc(NC(=O)c4nn(C5CC5)cc4OCC4CNC4)nc3)c2cc1OC [Compound 144]
7,< 500,COCCOc1cn(C2CC2)nc1C(=O)Nc1ccc(Oc2ccnc3cc(OC)c(OC)cc23)cn1 [Compound 107]
8,≥ 1000,CNCCOc1cn(C2CC2)nc1C(=O)Nc1ccc(Oc2ccnc3cc(OC)c(OC)cc23)nn1 [Compound 160]
9,< 500,COc1cc2nccc(Oc3ccc(NC(=O)c4nn(CC(C)C)cc4OCC(F)(F)F)nn3)c2cc1OC [Compound 124]
10,< 500,COc1cc2nccc(Oc3ccc(NC(=O)c4nn(C5CC5)cc4OCC4COC4)nc3)c2cc1OC [Compound 143]
11,≥ 1000,CCCn1cc(OCCNC)c(C(=O)Nc2ccc(Oc3ccnc4cc(OC)c(OC)cc34)cn2)n1 [Compound 140]
12,≥ 1000,COc1cc2nccc(Oc3ccc(NC(=O)c4nn(C)cc4OCC(F)(F)F)nn3)c2cc1OC [Compound 102]
13,< 500,COc1cc2nccc(Oc3ccc(NC(=O)c4nn(CC5COC5)cc4OCC(F)(F)F)cc3F)c2cc1OC [Compound 97]
14,< 500,COc1cc2nccc(Oc3ccc(NC(=O)c4nn(C5CC5)cc4OCC4CCC4)nn3)c2cc1OC [Compound 149]
15,< 500,CCCn1cc(OCC(F)(F)F)c(C(=O)Nc2ccc(Oc3ccnc4cc(OC)c(OC)cc34)cn2)n1 [Compound 7]
16,< 500,CNCCn1cc(OCC(F)(F)F)c(C(=O)Nc2ccc(Oc3ccnc4cc(OC)c(OC)cc34)cn2)n1 [Compound 11]
17,< 500,COc1cc2nccc(Oc3ccc(NC(=O)c4nn(C5CCCC5)cc4OCC(F)(F)F)cn3)c2cc1OC [Compound 131]
18,< 500,COc1cc2nccc(Oc3ccc(NC(=O)c4nn(CC5COC5)cc4OCC(F)(F)F)cc3)c2cc1OC [Compound 101]
19,< 500,COCCn1cc(OCC(F)(F)F)c(C(=O)Nc2ccc(Oc3ccnc4cc(OC)c(OC)cc34)nn2)n1 [Compound 126]
20,< 500,COc1cc2nccc(Oc3ccc(NC(=O)c4nn(C5CC5)cc4NCC(F)(F)F)nn3)c2cc1OC [Compound 148]
21,< 500,CCCn1cc(OCC2COC2)c(C(=O)Nc2ccc(Oc3ccnc4cc(OC)c(OC)cc34)cn2)n1 [Compound 106]
22,< 500,COc1cc2nccc(Oc3ccc(NC(=O)c4nn(C5CCOC5)cc4OCC(F)(F)F)nn3)c2cc1OC (stereo not shown) [Compound 128]
23,< 500,COc1cc2nccc(Oc3ccc(NC(=O)c4nn(CCOC5CC5)cc4OCC(F)(F)F)cc3F)c2cc1OC [Compound 116]
